Some test systems named below: A498; A549; CAKI-1; HCT-116; K562; KM12; MDA-MB-435; Malme-3M; NCI-H23; NCI-H460; NCI/ADR-RES; OVCAR-4; OVCAR-8; PC-3; SF-539; SNB-19; SR; TK-10; U-251; HL-60.
What all share (assay): NCI anticancer screen, dose series, 48 h

Each structure is given as a SMILES string.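 Dose response: 5 concentrations. Exposure: 48 h. Format: 96-well plates. Endpoint: linear interpolation; highest concentration if not reached. GI50 = concentration required for 50% inhibition of growth.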 Calls of active or inactive are those of the source. Rule as the data show it: active = GI50 up to about 1.1 µM and inactive = higher.

Consider `O=C(c1cscc1CCc1ccccc1)c1cscc1CCc1ccccc1`, for which the GI50 with A498, with A549, in the assay on CAKI-1, with HCT-116, in the assay with K562 and in the assay on KM12 was > 100 µM (inactive) each time. For the same molecule, the GI50 in the assay with MDA-MB-435, with Malme-3M, with NCI-H23, in the assay with NCI-H460, in the assay with NCI/ADR-RES and in the assay on OVCAR-4 was > 100 µM (inactive) each time. Besides, the GI50 in the assay on OVCAR-8 is > 100 µM (inactive); in the assay on PC-3, > 100 µM (inactive); in the assay on SF-539 it was > 100 µM (inactive); in the assay on SNB-19, > 100 µM (inactive); with SR, 80 µM (inactive); in the assay with TK-10, > 100 µM (inactive). Moreover, the GI50 in the assay with U-251 is > 100 µM (inactive).

Regarding `C/C1=C\CC[C@@]2(C)O[C@@H]2[C@H]2OC(=O)C(C)C2C[C@H]1O` (stereo not given in full), the GI50 in the assay on A549, in the assay on CAKI-1, in the assay on HCT-116, in the assay on K562, in the assay on KM12 and with MDA-MB-435 was > 100 µM (inactive) throughout. The GI50 in the assay on Malme-3M, in the assay on NCI-H23, with NCI-H460, in the assay on NCI/ADR-RES, in the assay with OVCAR-4 and with OVCAR-8 was > 100 µM (inactive) throughout. Also, the GI50 in the assay on PC-3, with SNB-19, with SR, in the assay with TK-10 and in the assay with U-251 was > 100 µM (inactive) throughout.

Regarding `COc1cc(/C=N/c2ccc(Oc3ccc(Cl)cc3)c(Cl)c2)cc(OC)c1OC`, the GI50 with A549 was 18.5 µM (inactive); with CAKI-1, 22.9 µM (inactive); in the assay with HCT-116, 13.8 µM (inactive); with HL-60 it was 15 µM (inactive); in the assay with KM12 it was 21.3 µM (inactive); in the assay on MDA-MB-435, 28.2 µM (inactive). Moreover, the GI50 in the assay with Malme-3M was 15.5 µM (inactive); with NCI-H23, 20.2 µM (inactive); in the assay on NCI-H460, 19.3 µM (inactive); with NCI/ADR-RES it was 22.9 µM (inactive); in the assay on OVCAR-4 it was 19.4 µM (inactive); in the assay on OVCAR-8 it was 25.8 µM (inactive). Further, the GI50 in the assay with PC-3 is 14.3 µM (inactive); with SF-539, 16.4 µM (inactive); in the assay with SNB-19 it was 21.8 µM (inactive); with SR, 26.9 µM (inactive); in the assay on TK-10, 32.9 µM (inactive); in the assay on U-251, 18.2 µM (inactive).

In the case of `COc1cccc(C2SC(=N)Nc3c2c(C)nn3C(=O)c2ccccc2O)c1` (stereo not given), the GI50 in the assay with A498 is 7.78 µM (inactive); in the assay on A549 it was 1.75 µM (inactive); in the assay on CAKI-1 it was > 10 µM (inactive); in the assay with HCT-116, > 2.14 µM (inactive); with KM12 it was > 2.79 µM (inactive); with MDA-MB-435, 1.76 µM (inactive). Further, the GI50 is 0.581 µM (active) in the assay with Malme-3M; 3.22 µM (inactive) with NCI-H460; > 3.78 µM (inactive) with NCI/ADR-RES; > 2.88 µM (inactive) in the assay on OVCAR-4; > 2.76 µM (inactive) in the assay with OVCAR-8; > 10 µM (inactive) in the assay on PC-3. Also, the GI50 was > 10 µM (inactive) in the assay with SNB-19, > 3.21 µM (inactive) with SR, > 2.78 µM (inactive) in the assay with TK-10 and > 2.65 µM (inactive) with U-251.

As for `Clc1ccc(Cl)c(SCCCN2CCNCC2)c1`, the GI50 in the assay on A498 is 13.7 µM (inactive); in the assay with A549, 20.6 µM (inactive); with CAKI-1 it was 17.8 µM (inactive); with HCT-116 it was 18.3 µM (inactive); in the assay with HL-60, 14.2 µM (inactive); in the assay on K562 it was 14.6 µM (inactive). For the same molecule, the GI50 was 25.5 µM (inactive) with KM12; 14 µM (inactive) with MDA-MB-435; 15.8 µM (inactive) in the assay on Malme-3M; 19.4 µM (inactive) in the assay with NCI-H23; 18.4 µM (inactive) in the assay on NCI-H460; 17.3 µM (inactive) in the assay with NCI/ADR-RES. Besides, the GI50 in the assay with OVCAR-4 was 20.6 µM (inactive); with OVCAR-8, 20.3 µM (inactive); with PC-3, 14.6 µM (inactive); in the assay on SF-539 it was 27.5 µM (inactive); in the assay with SNB-19 it was 16.9 µM (inactive); with TK-10 it was 16.5 µM (inactive). Moreover, the GI50 in the assay on U-251 is 16.4 µM (inactive).

Turning to `O=C(Cn1c(-c2ccccc2)cc2ccccc21)N1CCOCC1`, the GI50 in the assay with A498, in the assay with A549, in the assay on CAKI-1, in the assay on HCT-116, in the assay on HL-60 and in the assay with K562 was > 100 µM (inactive) each time. In addition, the GI50 in the assay with KM12, in the assay with MDA-MB-435, in the assay with Malme-3M, in the assay on NCI-H23, in the assay on NCI-H460 and with NCI/ADR-RES was > 100 µM (inactive) each time. Also, the GI50 with OVCAR-4 was > 100 µM (inactive); in the assay with OVCAR-8, > 100 µM (inactive); in the assay on PC-3, 61.1 µM (inactive); in the assay with SF-539, 67.1 µM (inactive); in the assay on SNB-19, 79.3 µM (inactive); with TK-10, > 100 µM (inactive). Besides, the GI50 in the assay with U-251 was 45 µM (inactive).

Regarding `CNc1nc(N)c(N=O)c(Nc2ccc(Br)cc2)n1`, the GI50 in the assay on A549, in the assay with HCT-116, in the assay on HL-60, in the assay on K562, with KM12 and in the assay with MDA-MB-435 was > 100 µM (inactive) in each case. Moreover, the GI50 in the assay with Malme-3M, with NCI-H23, with NCI-H460, in the assay with NCI/ADR-RES, with OVCAR-8 and in the assay on PC-3 was > 100 µM (inactive) throughout. Besides, the GI50 in the assay with SF-539 is > 100 µM (inactive); in the assay with SNB-19 it was > 100 µM (inactive); with SR, > 100 µM (inactive); in the assay with TK-10 it was > 100 µM (inactive); in the assay with U-251 it was 61.8 µM (inactive).

Turning to `COc1ccc(NC(C)=O)cc1C1CCC(=O)N1` (stereo not given), the GI50 with A498, in the assay on A549, in the assay on CAKI-1, with HCT-116, in the assay on HL-60 and with K562 was > 100 µM (inactive) each time. The GI50 in the assay with KM12, in the assay on MDA-MB-435, in the assay with Malme-3M, in the assay with NCI-H23, in the assay with NCI-H460 and with NCI/ADR-RES was > 100 µM (inactive) in each case. The GI50 in the assay on OVCAR-4, in the assay on OVCAR-8, in the assay with PC-3, in the assay with SF-539, in the assay with SNB-19 and in the assay on TK-10 was > 100 µM (inactive) each time. Besides, in the assay on U-251, the GI50 is > 100 µM (inactive).

With `O=C1c2cc([N+](=O)[O-])cc3cc([N+](=O)[O-])cc(c23)C(=O)N1CCCNCCNCCCN1C(=O)c2cc([N+](=O)[O-])cc3cc([N+](=O)[O-])cc(c23)C1=O`, the GI50 with A498 is 0.769 µM (active); in the assay on A549 it was 0.0294 µM (active); in the assay on CAKI-1 it was 0.182 µM (active); with HCT-116, 0.0102 µM (active); with HL-60, 0.0166 µM (active); in the assay with K562 it was < 0.0167 µM (active). Further, the GI50 is 0.0582 µM (active) in the assay with KM12; 0.975 µM (active) with MDA-MB-435; 0.223 µM (active) in the assay with Malme-3M; 0.0931 µM (active) in the assay on NCI-H23; 0.0169 µM (active) in the assay on NCI-H460; 1.34 µM (inactive) in the assay on NCI/ADR-RES. The GI50 in the assay with OVCAR-4 was 0.178 µM (active); in the assay on OVCAR-8, 0.0841 µM (active); in the assay with PC-3 it was 0.376 µM (active); in the assay with SF-539 it was 0.0533 µM (active); with SNB-19, 0.326 µM (active); in the assay on TK-10 it was 1.19 µM (inactive). Moreover, the GI50 in the assay on U-251 is 0.0395 µM (active).

As to `C=CN(C=C)C(=O)Cn1cc(-c2ccccc2)nn1`, the GI50 in the assay with A549, with CAKI-1, in the assay on HCT-116, in the assay with HL-60, in the assay with K562 and in the assay with KM12 was > 100 µM (inactive) in each case. In addition, the GI50 in the assay with MDA-MB-435 is > 100 µM (inactive); with Malme-3M, > 100 µM (inactive); with NCI-H23, > 100 µM (inactive); with NCI-H460, > 100 µM (inactive); in the assay on NCI/ADR-RES, > 100 µM (inactive); with OVCAR-4, 31.1 µM (inactive). In addition, the GI50 in the assay on OVCAR-8, with PC-3, in the assay with SF-539, in the assay on SNB-19, in the assay on SR and in the assay on TK-10 was > 100 µM (inactive) each time. The GI50 with U-251 is > 100 µM (inactive).

For the molecule `O=c1oc2ccccc2cc1-c1nc2ccccc2c(=O)[nH]1`, the GI50 in the assay on A549 is > 100 µM (inactive); with CAKI-1 it was > 100 µM (inactive); in the assay with HCT-116, > 100 µM (inactive); in the assay with HL-60 it was 21.9 µM (inactive); in the assay on K562, > 100 µM (inactive); in the assay with KM12 it was > 100 µM (inactive). Also, the GI50 in the assay with MDA-MB-435, in the assay with Malme-3M, with NCI-H460, with NCI/ADR-RES, in the assay with OVCAR-4 and in the assay on OVCAR-8 was > 100 µM (inactive) throughout. Moreover, the GI50 is > 100 µM (inactive) in the assay with PC-3; > 100 µM (inactive) in the assay on SF-539; > 100 µM (inactive) with SNB-19; > 100 µM (inactive) with SR; > 100 µM (inactive) with TK-10; 50.4 µM (inactive) in the assay on U-251.

These data come from ChEMBL document CHEMBL1201862, “PubChem BioAssay data set” (2004).
